Test results as given in patent publication US20100267561A1, “HERBICIDAL PYRIDAZINONE DERIVATIVES” (priority 2007, published 2010).

Experiments:
Format in all cases: in vivo
[1] = system: wild oat (Avena fatua); test: Test C pre-/postemergence plant response
Procedure, shortened: (§1)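 Formulated in a surfactant-containing non-phytotoxic solvent, compounds were tested under controlled growth conditions as preemergence and postemergence treatments. Ratings from 0 (no effect) to 100 (complete control) were assigned visually relative to controls 15 to 25 days later.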

[2] = system: canarygrass (Phalaris minor); test: Test C pre-/postemergence plant response
Procedure, shortened: as §1

[3] = system: downy bromegrass (Bromus tectorum); test: Test C pre-/postemergence plant response
Procedure, shortened: as §1

[4] = system: winter barley (Hordeum vulgare); test: Test C pre-/postemergence plant response
Procedure, shortened: as §1

[5] = system: Italian ryegrass (Lolium multiflorum); test: Test C pre-/postemergence plant response
Procedure, shortened: as §1

[6] = system: windgrass (Apera spica-venti); test: Test C pre-/postemergence plant response
Procedure, shortened: as §1

[7] = system: annual bluegrass (Poa annua); test: Test C pre-/postemergence plant response
Procedure, shortened: as §1

[8] = system: pigweed (Amaranthus retroflexus); test: Test C pre-/postemergence plant response
Procedure, shortened: as §1

[9] = system: blackgrass (Alopecurus myosuroides); test: Test C pre-/postemergence plant response
Procedure, shortened: as §1

[10] = system: wild mustard (Sinapis arvensis); test: Test C pre-/postemergence plant response
Procedure, shortened: as §1

[11] = system: spring wheat (Triticum aestivum); test: Test C pre-/postemergence plant response
Procedure, shortened: as §1

[12] = system: winter wheat (Triticum aestivum); test: Test C pre-/postemergence plant response
Procedure, shortened: as §1

[13] = system: green foxtail (Setaria viridis); test: Test C pre-/postemergence plant response
Procedure, shortened: as §1

[14] = system: spring barley (Hordeum vulgare); test: Test C pre-/postemergence plant response
Procedure, shortened: as §1

[15] = system: canarygrass (Phalaris minor); test: Test B postemergence plant response; conditions: for Plant response rating, Canarygrass: Postemergence
Procedure, shortened: (§2)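 Visual injury ratings on a 0–100 scale, where 100 means complete control, were made 13 to 15 days after postemergence treatment of greenhouse-grown plants at the 1- to 4-leaf stage.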

[16] = system: winter barley (Hordeum vulgare); test: Test B postemergence plant response; conditions: for Plant response rating, Barley: Postemergence, scale 0 to 100, 0 no effect, 100 complete control
Procedure, shortened: as §2

[17] = system: windgrass (Apera spica-venti); test: Test B postemergence plant response; conditions: for Plant response rating, Windgrass: Postemergence
Procedure, shortened: as §2

[18] = Postemergence, 8 g ai/ha, scale 0 to 100, 0 no effect, 100 complete control
[19] = Postemergence, 16 g ai/ha, scale 0 to 100, 0 no effect, 100 complete control
[20] = Postemergence, 31 g ai/ha, scale 0 to 100, 0 no effect, 100 complete control
[21] = Postemergence, 62 g ai/ha, scale 0 to 100, 0 no effect, 100 complete control
[22] = Preemergence, 8 g ai/ha, scale 0 to 100 (0 no effect, 100 complete control)
[23] = Preemergence, 16 g ai/ha, scale 0 to 100 (0 no effect, 100 complete control)
[24] = Preemergence, 31 g ai/ha, scale 0 to 100 (0 no effect, 100 complete control)
[25] = Preemergence, 62 g ai/ha, scale 0 to 100, 0 no effect, 100 complete control
[26] = 8 g ai/ha, postemergence, 0-100 scale

## CCc1c(C)c(-c2ccc(Cl)cc2)nn1-c1c(O)cnn(C)c1=O [Compound 26, 4-[3-(4-chlorophenyl)-5-ethyl-4-methyl-1H-pyrazol-1-yl]-5-hydroxy-2-methyl-3(2H)-pyridazinone]
[1]; [18]
  Plant response rating, Oat, Wild: 70
[1]; [19]
  Plant response rating, Oat, Wild: 98
[1]; [20]
  Plant response rating, Oat, Wild: 98
[1]; [21]
  Plant response rating, Oat, Wild: 100
[1]; [22]
  Plant response rating, Oat, Wild: 0
[1]; [23]
  Plant response rating, Oat, Wild: 15
[1]; [24]
  Plant response rating, Oat, Wild: 65
[1]; [25]
  Plant response rating, Oat, Wild: 75
[2]; [18]
  Plant response rating, Canarygrass: 25
[2]; [19]
  Plant response rating, Canarygrass: 75
[2]; [20]
  Plant response rating, Canarygrass: 75
[2]; [21]
  Plant response rating, Canarygrass: 100
[2]; [22]
  Plant response rating, Canarygrass: 0
[2]; [23]
  Plant response rating, Canarygrass: 0
[2]; [24]
  Plant response rating, Canarygrass: 65
[2]; [25]
  Plant response rating, Canarygrass: 70
[3]; [18]
  Plant response rating, Bromegrass, Downy: 0
[3]; [19]
  Plant response rating, Bromegrass, Downy: 0
[3]; [20]
  Plant response rating, Bromegrass, Downy: 0
[3]; [21]
  Plant response rating, Bromegrass, Downy: 0
[3]; [22]
  Plant response rating, Bromegrass, Downy: 0
[3]; [23]
  Plant response rating, Bromegrass, Downy: 0
[3]; [24]
  Plant response rating, Bromegrass, Downy: 0
[3]; [25]
  Plant response rating, Bromegrass, Downy: 20
[4]; [18]
  Plant response rating, Barley, Winter: 0
[4]; [19]
  Plant response rating, Barley, Winter: 0
[4]; [20]
  Plant response rating, Barley, Winter: 10
[4]; [21]
  Plant response rating, Barley, Winter: 40
[4]; [22]
  Plant response rating, Barley, Winter: 0
[4]; [23]
  Plant response rating, Barley, Winter: 0
[4]; [24]
  Plant response rating, Barley, Winter: 10
[4]; [25]
  Plant response rating, Barley, Winter: 10
[5]; [18]
  Plant response rating, Ryegrass, Italian: 70
[5]; [19]
  Plant response rating, Ryegrass, Italian: 85
[5]; [20]
  Plant response rating, Ryegrass, Italian: 95
[5]; [21]
  Plant response rating, Ryegrass, Italian: 100
[5]; [22]
  Plant response rating, Ryegrass, Italian: 15
[5]; [23]
  Plant response rating, Ryegrass, Italian: 75
[5]; [24]
  Plant response rating, Ryegrass, Italian: 100
[5]; [25]
  Plant response rating, Ryegrass, Italian: 100
[6]; [18]
  Plant response rating, Windgrass: 0
[6]; [19]
  Plant response rating, Windgrass: 0
[6]; [20]
  Plant response rating, Windgrass: 20
[6]; [21]
  Plant response rating, Windgrass: 65
[6]; [22]
  Plant response rating, Windgrass: 30
[6]; [23]
  Plant response rating, Windgrass: 30
[6]; [24]
  Plant response rating, Windgrass: 98
[6]; [25]
  Plant response rating, Windgrass: 100
[7]; [18]
  Plant response rating, Bluegrass: 0
[7]; [19]
  Plant response rating, Bluegrass: 0
[7]; [20]
  Plant response rating, Bluegrass: 0
[7]; [21]
  Plant response rating, Bluegrass: 15
[7]; [22]
  Plant response rating, Bluegrass: 0
[7]; [23]
  Plant response rating, Bluegrass: 0
[7]; [24]
  Plant response rating, Bluegrass: 0
[7]; [25]
  Plant response rating, Bluegrass: 0
[8]; [18]
  Plant response rating, Pigweed: 0
[8]; [19]
  Plant response rating, Pigweed: 0
[8]; [20]
  Plant response rating, Pigweed: 0
[8]; [21]
  Plant response rating, Pigweed: 20
[8]; [22]
  Plant response rating, Pigweed: 0
[8]; [23]
  Plant response rating, Pigweed: 0
[8]; [24]
  Plant response rating, Pigweed: 0
[8]; [25]
  Plant response rating, Pigweed: 20
[9]; [18]
  Plant response rating, Blackgrass: 50
[9]; [19]
  Plant response rating, Blackgrass: 50
[9]; [20]
  Plant response rating, Blackgrass: 70
[9]; [21]
  Plant response rating, Blackgrass: 95
[9]; [22]
  Plant response rating, Blackgrass: 20
[9]; [23]
  Plant response rating, Blackgrass: 50
[9]; [25]
  Plant response rating, Blackgrass: 75
[10]; [18]
  Plant response rating, Mustard, Wild: 0
[10]; [19]
  Plant response rating, Mustard, Wild: 0
[10]; [22]
  Plant response rating, Mustard, Wild: 0
[10]; [23]
  Plant response rating, Mustard, Wild: 0
[10]; [24]
  Plant response rating, Mustard, Wild: 0
[10]; [25]
  Plant response rating, Mustard, Wild: 0
[11]; [18]
  Plant response rating, Wheat, Spring: 10
[11]; [19]
  Plant response rating, Wheat, Spring: 10
[11]; [20]
  Plant response rating, Wheat, Spring: 30
[11]; [21]
  Plant response rating, Wheat, Spring: 30
[11]; [22]
  Plant response rating, Wheat, Spring: 0
[11]; [23]
  Plant response rating, Wheat, Spring: 0
[11]; [24]
  Plant response rating, Wheat, Spring: 25
[11]; [25]
  Plant response rating, Wheat, Spring: 25
[12]; [18]
  Plant response rating, Wheat, Winter: 0
[12]; [19]
  Plant response rating, Wheat, Winter: 0
[12]; [20]
  Plant response rating, Wheat, Winter: 30
[12]; [21]
  Plant response rating, Wheat, Winter: 35
[12]; [22]
  Plant response rating, Wheat, Winter: 0
[12]; [23]
  Plant response rating, Wheat, Winter: 0
[12]; [24]
  Plant response rating, Wheat, Winter: 0
[12]; [25]
  Plant response rating, Wheat, Winter: 25
[13]; [18]
  Plant response rating, Foxtail, Green: 90
[13]; [19]
  Plant response rating, Foxtail, Green: 95
[13]; [20]
  Plant response rating, Foxtail, Green: 95
[13]; [21]
  Plant response rating, Foxtail, Green: 98
[13]; [22]
  Plant response rating, Foxtail, Green: 0
[13]; [23]
  Plant response rating, Foxtail, Green: 0
[13]; [24]
  Plant response rating, Foxtail, Green: 75
[13]; [25]
  Plant response rating, Foxtail, Green: 100
[14]; [18]
  Plant response rating, Barley, Spring: 0
[14]; [19]
  Plant response rating, Barley, Spring: 0
[14]; [20]
  Plant response rating, Barley, Spring: 35
[14]; [21]
  Plant response rating, Barley, Spring: 50
[14]; [22]
  Plant response rating, Barley, Spring: 0
[14]; [23]
  Plant response rating, Barley, Spring: 0
[14]; [24]
  Plant response rating, Barley, Spring: 25
[14]; [25]
  Plant response rating, Barley, Spring: 35
[15]; [26]
  Canarygrass plant response rating: 10
[15]; 16 g ai/ha, scale 0 to 100
  Plant response rating, Canarygrass: 10
[15]; 31 g ai/ha, scale 0 to 100, 0 no effect, 100 complete control
  Plant response rating, Canarygrass: 60
[16]; [26]
  Barley plant response rating: 0
[16]; 16 g ai/ha
  Plant response rating, Barley: 0
[16]; 31 g ai/ha
  Plant response rating, Barley: 0
[16]; 62 g ai/ha
  Plant response rating, Barley: 0
[17]; [26]
  Windgrass plant response rating: 50
[17]; 16 g ai/ha, scale 0 to 100
  Plant response rating, Windgrass: 80
[17]; 62 g ai/ha, scale 0 to 100, 0 no effect, 100 complete control
  Plant response rating, Windgrass: 95
